Test results taken from patent publication US20250206734A1, “BICYCLIC HETEROCYCLES AS MRGPRX2 ANTAGONISTS” (Incyte Corporation, priority 2023, published 2025).

Key:
Assay type in all cases: cell-based
MRGPRX2 [1] = target: T1, MRGPRX2 (Homo sapiens, UniProt Q96LB1); assay: MRGPRX2 β-Arrestin Assay; set-up: host or cells: PathHunter CHO-K1; conditions: PathHunter CHO-K1 MRGPRX2 β-Arrestin cell line; agonist Cortistatin 14 0.25 μM
T1 sequence (Q96LB1 1-330): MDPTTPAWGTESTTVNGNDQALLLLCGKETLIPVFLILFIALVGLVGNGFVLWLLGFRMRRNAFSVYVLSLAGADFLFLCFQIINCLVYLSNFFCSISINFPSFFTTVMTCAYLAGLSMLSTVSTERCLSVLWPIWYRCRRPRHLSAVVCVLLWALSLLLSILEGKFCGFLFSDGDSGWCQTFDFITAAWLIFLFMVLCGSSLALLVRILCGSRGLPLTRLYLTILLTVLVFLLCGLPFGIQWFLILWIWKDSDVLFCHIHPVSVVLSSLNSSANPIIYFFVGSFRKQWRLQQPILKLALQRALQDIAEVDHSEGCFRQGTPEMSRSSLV
Text: Example C: MRGPRX2 β-Arrestin Assay
This assay measures compound inhibition of β-Arrestin recruitment, which is part of the G protein-independent pathway that results from the ligand-activated GPCR phosphorylation by specific GPCR kinases. The PathHunter CHO-K1 MRPGRX2 B-Arrestin Cell line stably expressing ProLink tagged MRGPRX2 and Enzyme Acceptor Tagged B-Arrestin was purchased from Eurofins DiscoverX, (Fremont, CA).
The cells were maintained in culture medium from the Europhins DiscoverX Cell Culture Kit-107 which includes FBS, hygromycin B and G418. For the assay, the cells were harvested and were resuspended with Cell Plating Reagent 2 (Eurofins DiscoverX). Cells were added 10000 cells in 25 μL/well to a 384-well black cell culture plate (Greiner VWR, Radnor, PA) which contained 125 nL/well of compound at a selected serially diluted concentration range or DMSO. The plate was incubated at 37° C. with 5% CO2 for 1 h. 2 μL/well of agonist Cortistatin 14 was diluted in Protein Dilution Buffer, (Eurofins DiscoverX) for a final concentration of 0.25 μM, was added and the plate was incubated at 37° C. with 5% CO2 for 90 min. 14 μL/well of Detection Reagent Mix (PathHunter Detection Kit, Eurofins DiscoverX) was added to the plates and further incubated for 1 h in the dark. Plates were read on the PHERAstar microplate reader (BMG Labtech Cary, NC) measuring luminescence 0.1 to 1 s per well. Data was normalized using DMSO only wells and wells with high concentration of reference antagonist as controls. Compound IC50 curves were globally fitted with 3- or 4-parameter Hill equation in a Genedata Screener (Genedata Basel, Switzerland).

MRGPRX2 [2] = target: T1, MRGPRX2; assay: MRGPRX2 IP1 HTRF Assay; set-up: host or cells: CHO-K1; conditions: CHO-K1 cells stably expressing human MRGPRX2; IP1 accumulation; agonist Cortistatin 14 1 μM
Text: Example B: MRGPRX2 IP1 HTRF Assay
This assay measures compound inhibition of myo-Inositol 1 phosphate (IP1) accumulation in CHO-K1 cells. Chinese hamster ovary (CHO-K1) cells stably expressing human MRGPRX2 were purchased from GenScript (Piscataway, NJ).
For the HTRF IP1 determination, an IP-One GqKit (Perkin Elmer Cisbio, Waltham, MA), which includes all reagents and buffers in this protocol, was used. The cells were maintained in culture medium (Ham's F-12K) containing 10% (v/v) FBS, and 200 μg/mL Zeocin. For the assay, the cells were harvested and resuspended in culture medium with 2% FBS and without Zeocin, then were passed through a 40 μm filter. Cells were added at 20000 cells in a 5 μL/well to a 384-well white small volume cell culture plate (Greiner VWR, Radnor, PA) which contained 50 nL/well of test compound serially diluted at a selected concentration range in DMSO. 5 μL/well of prepared 2× Stimulation Buffer2 was then added to plates and was incubated at 37° C. with 5% CO2 for 1 h. 5 μL/well of agonist Cortistatin 14 (Bio-TechneR&D Systems, Minneapolis, MN) in 1× Stimulation Buffer 2, for a 1 μM final concentration, was then added to plates and incubated at 37° C. with 5% CO2 for 1 h. 6 μL/well of 1:20 diluted Detection Reagent Mix (d2 and Cryptate) was added to the plates and incubated for 1 h in the dark. Plates were read on the PHERAstar microplate reader (BMG Labtech Cary, NC) to determine the HTRF ratio of the acceptor and donor emission signals. The IP1 concentrations were calculated from a standard curve following the IP-One GQ kit instructions. Wells with DMSO only and wells with high concentration of reference antagonist were used as controls for normalization. Compound IC50 curves were globally fitted with 3- or 4-parameter Hill equation in a Genedata Screener (Genedata Basel, Switzerland).

MRGPRX2 [3] = target: T1, MRGPRX2; assay: MRGPRX2 FLIPR Calcium Mobilization Assay; set-up: host or cells: CHO-K1; conditions: CHO-K1 cells stably expressing human MRGPRX2; Ca2+ release; agonist Cortistatin-14 at EC80
Experimental: Example A. MRGPRX2 FLIPR Calcium Mobilization Assay
Chinese hamster ovary (CHO-K1) cells stably expressing human MRGPRX2 were purchased from Genescript (Piscataway, NJ). The cells were maintained in culture medium (Ham's F-12K) containing 10% (v/v) FBS, 200 μg/mL Zeocin, 100 units/mL penicillin G and 100 μg/mL streptomycin (Life Technologies, Carlsbad, CA). For the assay, the cells were harvested and resuspended with culture medium without Zeocin before plating at 8000 cells per well in 20 μL in 384-well black clear bottom cell culture plates (VWR, Radnor, PA). After 24 hour culture at 37° C. and 5% CO2, the cells were loaded with 20 μL/well of calcium dye (FLIPR Calcium 6 Assay Kit, Molecular Devices, San Jose, CA) diluted in loading buffer (1× Hank's Balanced Salt Solution (HBSS), 5 mM probenecid, 20 mM 4-(2-hydroxyethyl)-1-piperazineethanesulfonic acid (HEPES), pH 7.4, VWR, Radnor, PA) followed with 45 min incubation at 37° C. and 40 min. at r.t. in the dark. Cells were then treated with the addition of 10 uL/well test compounds with a range of increasing concentrations diluted in the assay buffer (1×HBSS, 20 mM HEPES, pH 7.4, VWR, Radnor, PA) with FLIPR Penta (Molecular Devices. San Jose, CA) and incubated for 30 min. at r.t. Ca^2+ release was measured with FLIPR Penta with 10 s basal fluorescence measurement, then 12.5 μL of 5× agonist Cortistatin-14 (Tocris, Minneapolis, MN) at final concentration corresponding to the EC80 were added followed with continued fluorescence signal monitoring for an additional 110 s. The base line adjusted (median of first 10s base line) max value of the Relative Fluorescence Unit (RFU) was plotted against compound concentrations. Wells with no compound were served as the positive controls, and wells with high concentration of reference antagonist were used as negative controls. IC50 curves were globally fitted with 3- or 4-parameter Hill equation in a Genedata Screener (Genedata Basel, Switzerland).

Compound	IC50 (MRGPRX2 [1])	IC50 (MRGPRX2 [2])	IC50 (MRGPRX2 [3])
CC(c1cc2ncc(Oc3ccc(F)cc3F)cc2cn1)N1CCC(F)(F)CC1 (stereo not shown) [Example 1, 3-(2,4-Difluorophenoxy)-7-(1-(4,4-difluoropiperidin-1-yl)ethyl)-1,6-naphthyridine]	100 to 1000 nM	100 to 1000 nM	0.1 to 100 nM
CC(c1cc2ncc(Oc3ccc(F)cc3F)cc2cn1)N1CCCC(F)(F)C1 (stereo not shown) [Example 2, 3-(2,4-Difluorophenoxy)-7-(1-(3,3-difluoropiperidin-1-yl)ethyl)-1,6-naphthyridine]		100 to 1000 nM	0.1 to 100 nM
CC(c1cc2ncc(Oc3ccc(F)cc3F)cc2cn1)N1CCCC1c1ccccc1 (stereo not shown) [Example 3, 3-(2,4-Difluorophenoxy)-7-(1-(2-phenylpyrrolidin-1-yl)ethyl)-1,6-naphthyridine]	0.1 to 100 nM	0.1 to 100 nM	0.1 to 100 nM
CC(c1cc2ncc(Oc3ccc(F)cc3F)cc2cn1)N1CCC(F)(F)C(c2ccc(=O)[nH]c2)C1 (stereo not shown) [Example 4, 5-(1-(1-(3-(2,4-Difluorophenoxy)-1,6-naphthyridin-7-yl)ethyl)-4,4-difluoropiperidin-3-yl)pyridin-2(1H)-one]	0.1 to 100 nM	0.1 to 100 nM	0.1 to 100 nM
Fc1ccc(Oc2cnc3cc(C(N4CCCCC4)C(F)(F)F)ncc3c2)c(F)c1 (stereo not shown) [Example 5, 3-(2,4-Difluorophenoxy)-7-(2,2,2-trifluoro-1-(piperidin-1-yl)ethyl)-1,6-naphthyridine]	0.1 to 100 nM	100 to 1000 nM	0.1 to 100 nM
Fc1ccc(Oc2cnc3cc(C(N4CCC(F)(F)CC4)C(F)(F)F)ncc3c2)c(F)c1 (stereo not shown) [Example 6, 3-(2,4-Difluorophenoxy)-7-(1-(4,4-difluoropiperidin-1-yl)-2,2,2-trifluoroethyl)-1,6-naphthyridine]	0.1 to 100 nM	0.1 to 100 nM	0.1 to 100 nM
Fc1ccc(Oc2cnc3cc(C(N4CCCC4c4ccccc4)C(F)(F)F)ncc3c2)c(F)c1 (stereo not shown) [Example 7, 3-(2,4-Difluorophenoxy)-7-(2,2,2-trifluoro-1-(2-phenylpyrrolidin-1-yl)ethyl)-1,6-naphthyridine]	0.1 to 100 nM	0.1 to 100 nM	0.1 to 100 nM

Now from value to molecule:

IC50 (MRGPRX2 [1])	IC50 (MRGPRX2 [2])	IC50 (MRGPRX2 [3])	Compound
0.1 to 100 nM	0.1 to 100 nM	0.1 to 100 nM	Fc1ccc(Oc2cnc3cc(C(N4CCCC4c4ccncc4)C(F)(F)F)ncc3c2)c(F)c1 (stereo not shown) [Example 12, 3-(2,4-Difluorophenoxy)-7-(2,2,2-trifluoro-1-(2-(pyridin-4-yl)pyrrolidin-1-yl)ethyl)-1,6-naphthyridine]
0.1 to 100 nM	0.1 to 100 nM	0.1 to 100 nM	NC(=O)[C@@H]1CCCN1C(c1cc2ncc(Oc3ccc(F)cc3F)cc2cn1)C(F)(F)F (stereo partly drawn) [Example 14, (2S)-1-(1-(3-(2,4-Difluorophenoxy)-1,6-naphthyridin-7-yl)-2,2,2-trifluoroethyl)pyrrolidine-2-carboxamide]
0.1 to 100 nM	0.1 to 100 nM	0.1 to 100 nM	COc1ccc(C2CCCN2C(c2cc3ncc(Oc4ccc(F)cc4F)cc3cn2)C(F)(F)F)cc1 (stereo not shown) [Example 15, 3-(2,4-Difluorophenoxy)-7-(2,2,2-trifluoro-1-(2-(4-methoxyphenyl)pyrrolidin-1-yl)ethyl)-1,6-naphthyridine]
0.1 to 100 nM	0.1 to 100 nM	0.1 to 100 nM	O=c1ccc(C2CCCN(C(c3cc4ncc(Oc5ccc(F)cc5F)cc4cn3)C(F)(F)F)C2)cn1CC(F)(F)F (stereo not shown) [Example 16, 5-(1-(1-(3-(2,4-Difluorophenoxy)-1,6-naphthyridin-7-yl)-2,2,2-trifluoroethyl)piperidin-3-yl)-1-(2,2,2-trifluoroethyl)pyridin-2(1H)-one]
0.1 to 100 nM	0.1 to 100 nM		O=c1ccc(C2CN(C(c3cc4ncc(Oc5ccc(F)cc5F)cc4cn3)C(F)(F)F)CCC2(F)F)c[nH]1 (stereo not shown) [Example 17, 5-(1-(1-(3-(2,4-Difluorophenoxy)-1,6-naphthyridin-7-yl)-2,2,2-trifluoroethyl)-4,4-difluoropiperidin-3-yl)pyridin-2(1H)-one]
0.1 to 100 nM	0.1 to 100 nM		Fc1ccc(Oc2cnc3cc(C(N4CC(F)(F)CC4c4ccccc4)C(F)(F)F)ncc3c2)c(F)c1 (stereo not shown) [Example 18, 7-(1-(4,4-Difluoro-2-phenylpyrrolidin-1-yl)-2,2,2-trifluoroethyl)-3-(2,4-difluorophenoxy)-1,6-naphthyridine]
0.1 to 100 nM	0.1 to 100 nM		Fc1ccc(Oc2cnc3cc(C(N4CCC(F)(F)C4c4ccccc4)C(F)(F)F)ncc3c2)c(F)c1 (stereo not shown) [Example 19, 7-(1-(3,3-Difluoro-2-phenylpyrrolidin-1-yl)-2,2,2-trifluoroethyl)-3-(2,4-difluorophenoxy)-1,6-naphthyridine]
0.1 to 100 nM	0.1 to 100 nM		O=c1ccc(C2CCCN2C(c2cc3ncc(Oc4ccc(F)cc4F)cc3cn2)C(F)(F)F)c[nH]1 (stereo not shown) [Example 20, 5-(1-(1-(3-(2,4-Difluorophenoxy)-1,6-naphthyridin-7-yl)-2,2,2-trifluoroethyl)pyrrolidin-2-yl)pyridin-2(1H)-one]
